Earlier results on 1 molecule are cited in patent US20230025286A1, “PHARMACEUTICAL COMPOSITION COMPRISING ELTROMBOPAG BIS(MONOETHANOLAMINE)” (SYNTHON B.V., priority 2019, published 2023).

The conditions of data set [1]: background statement, no method or value given.
The conditions of data set [2]: background statement, no method or value given. The source holds these as a separate data set.

In the case of `CC1=NN(c2ccc(C)c(C)c2)C(=O)/C1=N\Nc1cccc(-c2cccc(C(=O)O)c2)c1O.NCCO.NCCO` [Eltrombopag bis(monoethanolamine), 3′-{(2Z)-2-[1-(3,4-dimethylphenyl)-3-methyl-5-oxo-1,5-dihydro-4H-pyrazol-4-ylidene]hydrazino}-2′-hydroxy-3-biphenylcarboxylic acid bis(monoethanolamine)], the solubility result in data set [1] is recorded as “low”. Further, in data set [2], the permeability result is recorded as “medium”.
